Assay results from patent US20250381179A1, “CHROMAN-BASED COMPOUNDS FOR TREATING CANCER” (priority 2024, published 2025).
Read-outs that look alike come from different tables or passages of the source.

Key:
ERa = biological target: T1, ERa (Homo sapiens, UniProt P03372); experiment: Binding to human ERa; details: for IC50: read-out: half-maximal inhibitory concentration (IC50) (converted)
T1 sequence (P03372 1-595): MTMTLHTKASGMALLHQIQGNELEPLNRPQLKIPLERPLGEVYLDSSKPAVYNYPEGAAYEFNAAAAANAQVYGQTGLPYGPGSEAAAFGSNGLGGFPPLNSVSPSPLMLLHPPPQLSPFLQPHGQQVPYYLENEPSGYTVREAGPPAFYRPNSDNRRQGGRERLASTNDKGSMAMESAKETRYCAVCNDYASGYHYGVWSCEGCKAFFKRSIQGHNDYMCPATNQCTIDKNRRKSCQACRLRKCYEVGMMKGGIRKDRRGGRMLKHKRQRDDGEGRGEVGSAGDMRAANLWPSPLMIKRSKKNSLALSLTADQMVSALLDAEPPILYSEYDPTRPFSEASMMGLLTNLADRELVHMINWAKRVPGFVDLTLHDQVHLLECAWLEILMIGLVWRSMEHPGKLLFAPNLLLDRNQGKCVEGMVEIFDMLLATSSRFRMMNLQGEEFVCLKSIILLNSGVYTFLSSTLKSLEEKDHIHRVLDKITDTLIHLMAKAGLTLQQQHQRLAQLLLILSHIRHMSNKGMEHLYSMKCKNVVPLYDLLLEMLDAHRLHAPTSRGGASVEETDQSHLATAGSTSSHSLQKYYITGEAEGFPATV

[1] = test system: ER+/HER2− locally advanced or metastatic breast cancer; experiment: Phase 1 study: anti-tumor activity (RECIST v1.1; ORR, CBR, best objective response); format: in vivo, human; details: for ORR (CR + PR) - n (%): RECIST 1.1, Investigator assessment; for Response - n (%): RECIST 1.1, efficacy evaluable set; for Confirmed Complete Response (cCR) / Confirmed Partial Response (cPR): confirmed by second assessment at least 4 weeks after first
Procedure: The study employed an open-label, 3+3 design, with the option of adding backfill patients to each cohort cleared and deemed safe. […] Compound (1-g) was administered orally once daily in 28-day cycles. Tumor responses were assessed every 2 cycles using RECIST v1.1 criteria. Therefore, the initial dose of 100 mg QD was chosen to limit the number of patients exposed to lower efficacious dose levels, while adding an additional 2.5-fold safety margin. The study also involves an ongoing dose escalation study where participants receive 100 mg, 200 mg, 300 mg, 400 mg, and 600 mg once daily (QD) dose levels.
Response and progression will be evaluated in this study using RECIST Version 1.1. Lesions are either measurable or non-measurable according to the criteria. The actual number of dose levels to be explored in this study depended on determination of the non-tolerable dose based on DLTs. Other safety data, as well as PK profiles observed during the conduct of the study and any trends for anti-tumor activity were collected. Treatment cycles occurred consecutively. Evaluation of a cohort of at least 3 patients completing 1 cycle of treatment (28 days) is required prior to proceeding to the next dose level. In addition, selected dose levels may be expanded to approximately 20 patients (per dose level).
All efficacy analyses were performed using the Efficacy Evaluable Analysis Set. Objective Response Rate (ORR), defined as the proportion of patients who have measurable disease at baseline with confirmed […] or partial response (PR) (i.e., 2 CRs or PRs at least 4 weeks apart) according to the RECIST Version 1.1 criteria. Clinical Benefit Rate (CBR), defined as the proportion of patients with CR, PR, or stable disease (SD) (where SD is ≥24 weeks) according to the RECIST Version 1.1 criteria. Duration of Response (DOR), defined as the time between first documentation of a response (CR or PR) and first evidence of PD according to RECIST v1.1 or death due to any cause. […] Progression Free Survival (PFS), defined as the time from the first day of study drug administration (Day 1) until disease progression as defined by the RECIST Version 1.1 criteria, or death on study, whichever occurs first. Patients who are alive and free from disease progression were censored at the date of last tumor assessment. For ORR and CBR, estimates and the associated 95% CIs (based on the Clopper-Pearson method), at each dose level were calculated. The absolute and relative difference in ORR and CBR between the two treatment groups was presented. For PFS, Kaplan-Meier curves were generated and the median time to event, and the associated 95% CIs were provided. The hazard ratio and the 95% CIs for these endpoints between the two treatment groups was calculated.
The overall response is evaluated according to the criteria in Table 4.
The objective response rate (ORR) and the clinical benefit rate (CBR) were assessed for the participants. The clinical benefit rate (CBR), as used herein, is defined as confirmed complete response or partial response at any time and stable disease over ≥24 weeks. Evaluable participants need to complete an adequate post-treatment scan. Participants with SD who remain on study <6 months are not included in the denominator.

CYP2B6 = CYP2B6 induction in vitro (activity, mRNA); format: in vitro ADME

With O=C1CC[C@H](N2Cc3cc(N4CCN(CC5CCN(c6ccc([C@@H]7c8ccc(O)cc8OC[C@@H]7c7ccccc7)cc6F)CC5)CC4)ccc3C2=O)C(=O)N1 [compound (1-g), (S)-3-(5-(4-((1-(2-fluoro-4-((3S,4R)-7-hydroxy-3-phenylchroman-4-yl)phenyl)piperidin-4-yl)methyl)piperazin-1-yl)-1-oxoisoindolin-2-yl)piperidine-2,6-dione] the “severely toxic dose in 10% of animals (STD10)” value (female, rat, in vivo, po, 28 day) was 270 mg/kg/day, the off-target adverse toxicities (rat, in vivo) was “no off-target adverse toxicities observed” and the key organ effects (rats, 28-day GLP) was “considered on target pharmacological effects”. The IC50 (ERa) was 6.02 nM, the Ki (ERa; read-out: inhibitor constant (Ki)) was 0.53 nM and the IC50 (ERa; same value in ng/mL) was 5.91 nM. The “Non-Response - n (%)” value ([1]; Cohort 1 (100 mg QD), N = 2) was 1 (50.0) n (%), the “Not Applicable (NA)” value ([1]; Cohort 1 (100 mg QD), N = 2) was 0 n (%) and the “Not Evaluable (NE)” value ([1]; Cohort 1 (100 mg QD), N = 2) was 0 n (%). The “Progressive Disease (PD)” value ([1]; Cohort 1 (100 mg QD), N = 2) was 0 n (%), the “Unconfirmed Complete Response (uCR)” value ([1]; Cohort 1 (100 mg QD), N = 2) was 0 n (%) and the “Unconfirmed Partial Response (uPR)” value ([1]; Cohort 1 (100 mg QD), N = 2) was 0 n (%). The “ORR (CR + PR) - n (%)” value ([1]; Cohort 1 (100 mg QD), N = 2) was 1 (50.0) n (%), the “Response - n (%)” value ([1]; Cohort 1 (100 mg QD), N = 2) was 1 (50.0) n (%) and the “Confirmed Complete Response (cCR)” value ([1]; Cohort 1 (100 mg QD), N = 2) was 0 n (%). For the same compound, the “Confirmed Partial Response (cPR)” value ([1]; Cohort 1 (100 mg QD), N = 2) was 1 (50.0) n (%), the “Non-Response - n (%)” value ([1]; Cohort 2 (200 mg QD), N = 8) was 6 (75.0) n (%) and the “Not Applicable (NA)” value ([1]; Cohort 2 (200 mg QD), N = 8) was 0 n (%). For the same compound, the “Not Evaluable (NE)” value ([1]; Cohort 2 (200 mg QD), N = 8) was 1 (12.5) n (%), the “Progressive Disease (PD)” value ([1]; Cohort 2 (200 mg QD), N = 8) was 2 (25.0) n (%) and the “Unconfirmed Complete Response (uCR)” value ([1]; Cohort 2 (200 mg QD), N = 8) was 0 n (%). The “Unconfirmed Partial Response (uPR)” value ([1]; Cohort 2 (200 mg QD), N = 8) was 0 n (%), the “ORR (CR + PR) - n (%)” value ([1]; Cohort 2 (200 mg QD), N = 8) was 2 (25.0) n (%) and the “Response - n (%)” value ([1]; Cohort 2 (200 mg QD), N = 8) was 2 (25.0) n (%). For the same compound, the “Confirmed Complete Response (cCR)” value ([1]; Cohort 2 (200 mg QD), N = 8) was 0 n (%), the “Confirmed Partial Response (cPR)” value ([1]; Cohort 2 (200 mg QD), N = 8) was 2 (25.0) n (%) and the “Non-Response - n (%)” value ([1]; Cohort 3 (300 mg QD), N = 9) was 8 (88.9) n (%). For the same compound, the “Not Applicable (NA)” value ([1]; Cohort 3 (300 mg QD), N = 9) was 0 n (%), the “Not Evaluable (NE)” value ([1]; Cohort 3 (300 mg QD), N = 9) was 0 n (%) and the “Progressive Disease (PD)” value ([1]; Cohort 3 (300 mg QD), N = 9) was 4 (44.4) n (%). For the same compound, the “Unconfirmed Complete Response (uCR)” value ([1]; Cohort 3 (300 mg QD), N = 9) was 0 n (%), the “Unconfirmed Partial Response (uPR)” value ([1]; Cohort 3 (300 mg QD), N = 9) was 0 n (%) and the “ORR (CR + PR) - n (%)” value ([1]; Cohort 3 (300 mg QD), N = 9) was 1 (11.1) n (%). For the same compound, the “Response - n (%)” value ([1]; Cohort 3 (300 mg QD), N = 9) was 1 (11.1) n (%), the “Confirmed Complete Response (cCR)” value ([1]; Cohort 3 (300 mg QD), N = 9) was 0 n (%) and the “Confirmed Partial Response (cPR)” value ([1]; Cohort 3 (300 mg QD), N = 9) was 1 (11.1) n (%). The “Non-Response - n (%)” value ([1]; Cohort 4 (400 mg QD), N = 4) was 4 (100) n (%), the “Not Applicable (NA)” value ([1]; Cohort 4 (400 mg QD), N = 4) was 0 n (%) and the “Not Evaluable (NE)” value ([1]; Cohort 4 (400 mg QD), N = 4) was 0 n (%). The “Progressive Disease (PD)” value ([1]; Cohort 4 (400 mg QD), N = 4) was 2 (50.0) n (%), the “Unconfirmed Complete Response (uCR)” value ([1]; Cohort 4 (400 mg QD), N = 4) was 0 n (%) and the “Unconfirmed Partial Response (uPR)” value ([1]; Cohort 4 (400 mg QD), N = 4) was 0 n (%). For the same compound, the “ORR (CR + PR) - n (%)” value ([1]; Cohort 4 (400 mg QD), N = 4) was 0 n (%), the “Response - n (%)” value ([1]; Cohort 4 (400 mg QD), N = 4) was 0 n (%) and the “Confirmed Complete Response (cCR)” value ([1]; Cohort 4 (400 mg QD), N = 4) was 0 n (%). For the same compound, the “Confirmed Partial Response (cPR)” value ([1]; Cohort 4 (400 mg QD), N = 4) was 0 n (%), the “Non-Response - n (%)” value ([1]; Cohort 5 (600 mg QD), N = 3) was 3 (100) n (%) and the “Not Applicable (NA)” value ([1]; Cohort 5 (600 mg QD), N = 3) was 0 n (%). The “Not Evaluable (NE)” value ([1]; Cohort 5 (600 mg QD), N = 3) was 0 n (%), the “Progressive Disease (PD)” value ([1]; Cohort 5 (600 mg QD), N = 3) was 0 n (%) and the “Unconfirmed Complete Response (uCR)” value ([1]; Cohort 5 (600 mg QD), N = 3) was 0 n (%). The “Unconfirmed Partial Response (uPR)” value ([1]; Cohort 5 (600 mg QD), N = 3) was 0 n (%), the “Response - n (%)” value ([1]; Cohort 5 (600 mg QD), N = 3) was 0 n (%) and the “Confirmed Complete Response (cCR)” value ([1]; Cohort 5 (600 mg QD), N = 3) was 0 n (%). The “Confirmed Partial Response (cPR)” value ([1]; Cohort 5 (600 mg QD), N = 3) was 0 n (%), the “Non-Response - n (%)” value ([1]; Overall, N = 26) was 22 (84.6) n (%) and the “Not Applicable (NA)” value ([1]; Overall, N = 26) was 0 n (%). For the same compound, the “Not Evaluable (NE)” value ([1]; Overall, N = 26) was 1 (3.8) n (%), the “Progressive Disease (PD)” value ([1]; Overall, N = 26) was 8 (30.8) n (%) and the “Unconfirmed Complete Response (uCR)” value ([1]; Overall, N = 26) was 0 n (%). For the same compound, the “Unconfirmed Partial Response (uPR)” value ([1]; Overall, N = 26) was 0 n (%), the “ORR (CR + PR) - n (%)” value ([1]; Overall, N = 26) was 4 (15.4) n (%) and the “Response - n (%)” value ([1]; Overall, N = 26) was 4 (15.4) n (%). For the same compound, the “Confirmed Complete Response (cCR)” value ([1]; Overall, N = 26) was 0 n (%), the “Confirmed Partial Response (cPR)” value ([1]; Overall, N = 26) was 4 (15.4) n (%) and the “CYP2B6 induction (activity or mRNA expression)” value (CYP2B6) was “did not significantly induce activity or mRNA expression”.
